Experimental data as given in patent US12304890B2, “R-type pyridyloxycarboxylic acid, salt and ester derivative thereof, and preparation method therefor, and herbicidal composition and application thereof” (Qingdao Kingagroot Chemical Compound Co., Ltd., priority 2018, dated 2025).

Columns and labels:
Format in all cases: in vivo
[1] = test system: Echinochloa crusgalli; assay: Post-emergence test experiment, Echinochloa crusgalli; conditions: for inhibition at 200 g/ha / Echinochloa crusgalli, activity level (growth inhibition rate): 3 weeks; for Activity level (growth inhibition rate), Echinochloa crusgalli: 1000 g a.i./ha, 3 weeks in greenhouse, fresh weight inhibition
Summary of the method: (§1)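 Seeds sown under 0.5-2 cm soil; sprayed post-emergence at 2-3 leaves with acetone/tween-80 solution plus 1.5 L/ha methyl oleate EC; greenhouse 3 wk; % fresh weight inhibition.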

[2] = test system: Digitaria sanguinalis; assay: Post-emergence test experiment, Digitaria sanguinalis; conditions: for inhibition at 200 g/ha / Digitaria sanguinalis, activity level (growth inhibition rate): 3 weeks; for Activity level (growth inhibition rate), Digitaria sanguinalis: 1000 g a.i./ha, 3 weeks in greenhouse, fresh weight inhibition
Summary of the method: as §1

[3] = test system: Semen Euphorbiae Lathyridis; assay: Post-emergence test experiment, Semen Euphorbiae Lathyridis; conditions: for inhibition at 200 g/ha / Semen Euphorbiae Lathyridis, activity level (growth inhibition rate): 3 weeks
Procedure: (§2) The above described growth inhibition rate is fresh weight inhibition rate.
(§3) Post-emergence test experiment: Monocotyledonous and dicotyledonous weed seeds and main crop seeds (i. e. wheat, corn, rice, soybean, cotton, oilseed, millet and sorghum.) were put into a plastic pot loaded with soil. Then covered with 0.5-2 cm soil, the seeds were allowed to grow in good greenhouse environment. The test plants were treated at 2-3 leaf stage 2 weeks after sowing. The test compounds of the invention were dissolved with acetone respectively, then added with tween-80, and using 1.5 liters per hectare of an emulsible concentrate of methyl oleate as a synergist, and diluted by certain amount of water to certain concentration. The solution was sprayed to the plants with a sprayer. Then the plants were cultured for 3 weeks in the greenhouse, and the experiment result of weed controlling effect was listed in tables 4-5.

[4] = test system: rice; assay: Post-emergence test experiment, rice (crop selectivity); conditions: 3 weeks
Procedure: as §2, §3

[5] = test system: Monocotyledonous and dicotyledonous weed seeds and main crop seeds; assay: Post-emergence test experiment, other weeds and crops (Table 4, 1000 g a.i./ha); conditions: 3 weeks in greenhouse, fresh weight inhibition
Summary of the method: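 Growth inhibition is scored on fresh weight. Spray solutions were made in acetone with tween-80, diluted in water, plus 1.5 L/ha methyl oleate emulsible concentrate. Plants from greenhouse-grown weed and crop seeds were treated post-emergence at 2-3 leaves, 2 weeks after sowing.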

[6] = Echinochloa crus-galli, 504 h, 200 g a.i./ha, weed resistant to ALS inhibitor and ACCe herbicides, read-out: Echinochloa crusgalli, activity level (growth inhibition rate)
[7] = Digitaria sanguinalis, 504 h, 200 g a.i./ha, weed resistant to cyhalofop-butyl, read-out: Digitaria sanguinalis, activity level (growth inhibition rate)
[8] = 504 h, 200 g a.i./ha, weed resistant to cyhalofop-butyl, read-out: Semen Euphorbiae Lathyridis, activity level (growth inhibition rate)
[9] = 200 g a.i./ha, weed resistant to ALS inhibitor and ACCe herbicides
[10] = 200 g a.i./ha, weed resistant to cyhalofop-butyl

| Structure (SMILES) | inhibition at 200 g/ha [1, 6] [%] | rice, activity level (growth inhibition rate) ([4]; 200 g a.i./ha) | Echinochloa crusgalli, activity level (growth inhibition rate) [1, 9] | Activity level (growth inhibition rate), Echinochloa crusgalli [1] | Digitaria sanguinalis, activity level (growth inhibition rate) [2, 10] | Activity level (growth inhibition rate), Digitaria sanguinalis [2] | Semen Euphorbiae Lathyridis, activity level (growth inhibition rate) [3, 10] | Activity level (growth inhibition rate), Abutilon theophrasti Medic. [5] | Activity level (growth inhibition rate), Galium aparine [5] | Activity level (growth inhibition rate), Monochoria Vaginalis [5] | also measured |
| --- | --- | --- | --- | --- | --- | --- | --- | --- | --- | --- | --- |
| CC(Oc1nc(F)c(Cl)c(N)c1Cl)C(=O)O (centres unmarked) [reference compound] | 20 to 40 | 2 (Level 2: the growth inhibition rate is equal to or greater than 20% and less than 40%) |  |  |  |  |  |  |  |  | inhibition at 200 g/ha [2, 7]: 40 to 60%; inhibition at 200 g/ha [3, 8]: 40 to 60% |
| CCCCOC(=O)[C@@H](C)Oc1ccc(Oc2ccc(C#N)cc2F)cc1 [cyhalofop-butyl, reference compound] |  |  |  |  |  |  |  |  |  |  | inhibition at 300 g/ha ([1]; Echinochloa crus-galli, 504 h, read-out: Echinochloa crusgalli, activity level (growth inhibition rate)): 5 to 20%; inhibition at 300 g/ha ([2]; Digitaria sanguinalis, 504 h, read-out: Digitaria sanguinalis, activity level (growth inhibition rate)): 5 to 20%; inhibition at 300 g/ha ([3]; 504 h, read-out: Semen Euphorbiae Lathyridis, activity level (growth inhibition rate)): 5 to 20%; rice, activity level (growth inhibition rate) ([4]; 300 g a.i./ha): 0 (Level 0: the growth inhibition rate is less than 5%) |
| CCSC(=O)[C@@H](C)Oc1nc(F)c(Cl)c(N)c1Cl [Compound 2-72] |  | 0 (Level 0: the growth inhibition rate is less than 5%) | 5 (Level 5: the growth inhibition rate is greater than 85%) | 5 (Level 5: the growth inhibition rate is greater than 85%) | 5 (Level 5: the growth inhibition rate is greater than 85%) | 5 (Level 5: the growth inhibition rate is greater than 85%) | 5 (Level 5: the growth inhibition rate is greater than 85%) | 5 (Level 5: the growth inhibition rate is greater than 85%) | 5 (Level 5: the growth inhibition rate is greater than 85%) | 5 (Level 5: the growth inhibition rate is greater than 85%) |  |
| CC(Oc1nc(F)c(Cl)c(N)c1Cl)C(=O)OCC1CCCO1 (centres unmarked) [Compound 2-298] |  |  | 5 (Level 5: the growth inhibition rate is greater than 85%) | 5 (Level 5: the growth inhibition rate is greater than 85%) | 5 (Level 5: the growth inhibition rate is greater than 85%) | 5 (Level 5: the growth inhibition rate is greater than 85%) | 5 (Level 5: the growth inhibition rate is greater than 85%) | 5 (Level 5: the growth inhibition rate is greater than 85%) | 5 (Level 5: the growth inhibition rate is greater than 85%) | 5 (Level 5: the growth inhibition rate is greater than 85%) | Echinochloa crusgalli, activity level (growth inhibition rate) ([1]; 100 g a.i./ha, resistant weed): 4 (Level 4: the growth inhibition rate is equal to or greater than 60% and less than 85%); Echinochloa crusgalli, activity level (growth inhibition rate) ([1]; 400 g a.i./ha, resistant weed): 5 (Level 5: the growth inhibition rate is greater than 85%); Digitaria sanguinalis, activity level (growth inhibition rate) ([2]; 100 g a.i./ha, resistant weed): 5 (Level 5: the growth inhibition rate is greater than 85%); Digitaria sanguinalis, activity level (growth inhibition rate) ([2]; 400 g a.i./ha, resistant weed): 5 (Level 5: the growth inhibition rate is greater than 85%); Semen Euphorbiae Lathyridis, activity level (growth inhibition rate) ([3]; 100 g a.i./ha, resistant weed): 5 (Level 5: the growth inhibition rate is greater than 85%); Semen Euphorbiae Lathyridis, activity level (growth inhibition rate) ([3]; 400 g a.i./ha, resistant weed): 5 (Level 5: the growth inhibition rate is greater than 85%); rice, activity level (growth inhibition rate) ([4]; 100 g a.i./ha): 0 (Level 0: the growth inhibition rate is less than 5%); rice, activity level (growth inhibition rate) ([4]; 400 g a.i./ha): 1 (Level 1: the growth inhibition rate is equal to or greater than 5% and less than 20%) |
| COC(=O)[C@@H](C)Oc1ncc(Cl)c(N)c1Cl [Compound 2-30] |  |  | 4 (Level 4: the growth inhibition rate is equal to or greater than 60% and less than 85%) | 5 (Level 5: the growth inhibition rate is greater than 85%) | 5 (Level 5: the growth inhibition rate is greater than 85%) | 5 (Level 5: the growth inhibition rate is greater than 85%) | 4 (Level 4: the growth inhibition rate is equal to or greater than 60% and less than 85%) | 5 (Level 5: the growth inhibition rate is greater than 85%) | 5 (Level 5: the growth inhibition rate is greater than 85%) | 5 (Level 5: the growth inhibition rate is greater than 85%) |  |
| CC(Oc1nc(F)c(Cl)c(N)c1Cl)C(=O)OCCN(C)C (centres unmarked) [Compound 2-283] |  | 0 (Level 0: the growth inhibition rate is less than 5%) | 5 (Level 5: the growth inhibition rate is greater than 85%) | 5 (Level 5: the growth inhibition rate is greater than 85%) | 5 (Level 5: the growth inhibition rate is greater than 85%) | 5 (Level 5: the growth inhibition rate is greater than 85%) | 5 (Level 5: the growth inhibition rate is greater than 85%) | 5 (Level 5: the growth inhibition rate is greater than 85%) | 5 (Level 5: the growth inhibition rate is greater than 85%) | 5 (Level 5: the growth inhibition rate is greater than 85%) |  |
| CCCCOCCOC(=O)C(C)Oc1nc(F)c(Cl)c(N)c1Cl (centres unmarked) [Compound 2-271] |  | 0 (Level 0: the growth inhibition rate is less than 5%) | 5 (Level 5: the growth inhibition rate is greater than 85%) | 5 (Level 5: the growth inhibition rate is greater than 85%) | 5 (Level 5: the growth inhibition rate is greater than 85%) | 5 (Level 5: the growth inhibition rate is greater than 85%) | 5 (Level 5: the growth inhibition rate is greater than 85%) | 5 (Level 5: the growth inhibition rate is greater than 85%) | 5 (Level 5: the growth inhibition rate is greater than 85%) | 5 (Level 5: the growth inhibition rate is greater than 85%) |  |
| CCOC(=O)C(C)Oc1nc(F)c(Cl)c(N)c1Cl (centres unmarked) [reference compound] | 20 to 40 | 1 (Level 1: the growth inhibition rate is equal to or greater than 5% and less than 20%) |  |  |  |  |  |  |  |  | inhibition at 200 g/ha [2, 7]: 20 to 40%; inhibition at 200 g/ha [3, 8]: 40 to 60% |
| CC(Oc1nc(F)c(Cl)c(N)c1Cl)C(=O)OCC1CCCO1 (centres unmarked) [drawing 482, reference compound] | 40 to 60 | 0 (Level 0: the growth inhibition rate is less than 5%) |  |  |  |  |  |  |  |  |  |
